From PubChem BioAssay AID2060483 (Molecular Pharmacology Branch, DTP, NCI, 2025)

Test system: K24384-001-R-PDC complex spheroids, viability
Test: Anticancer human tumor K24384-001-R-PDC patient-derived pancreatic adenocarcinoma cell line growth inhibition [GQUAD]
Settings: for IC50: curve of first compound; for viability, T/C: stronger effect = lower value
Source text: DNA G-quadruplex Stabilizer Agents in Combinations in Complex Spheroids
A high-throughput screen of multi-cell type tumor spheroids was designed to identify active combinations of DNA G-quadruplex stabilizer agents and targeted small molecules. Complex spheroids include a stromal component modeled by human endothelial cells (HUVEC) and fibroblasts modeled by human mesenchymal stem cells (MSCs). The concentration ranges selected for each drug and investigational agent were based upon clinically achievable concentrations if the clinical Cmax of the agent was known.
Compounds. The drugs and investigational agents: pidnarulex (CX-5461; NSC782164), APTO-253 (NSC789042), BRACO-19 (NSC847499), peposertib (NSC802822), ceralasertib (NSC780249), elimusertib (NSC800525), camonsertib (NSC841442), AZD-1390 (NSC803789), olaparib (NSC753686), talazoparib (NSC767125), ART-558 (NSC835418), sotorasib (NSC818433), MRTX-1133 (NSC836407), SN-38 (NSC673596), topotecan (NSC609699), etoposide (NSC141540), doxorubicin (NSC123127), gemcitabine (NSC613327), 5-fluorouracil (NSC19893), paclitaxel (NSC125973), vemurafenib (NSC761431), panobinostat (NSC761190), R-306465 (JNJ-16241199; NSC773264), adavosertib (NSC754352), TP-3654 (NSC805149), carboplatin (NSC241240), KSQ-4279 (NSC840948), and staurosporine (NSC755774) were obtained from the National Cancer Institute (NCI) Developmental Therapeutics Program Chemical Repository (34). The FDA-approved anticancer drug set is available from the NCI Developmental Therapeutics Program. […] The stock solutions were prepared in dimethyl sulfoxide (DMSO, Sigma-Aldrich, St. Louis, MO, cat. D2650) at 800-fold the tested concentration and stored at -70 degrees C prior to their use. All drugs and investigational agents were tested over a range starting from a high concentration at or near the clinical Cmax and decreasing in half-log increments. If the clinical Cmax for an agent had not been determined, the highest concentration tested was 10 microM.
2.3 Cell Culture. All cells were maintained in an incubator at 37 degrees C and 5% CO2 with 95% humidity. The PDC lines were cultured according to standard operating procedures established by the NCI PDMR. All PDCs were thawed and cultured in Matrigel-coated flasks prepared with a working solution of 1X Ham's F-12 nutrient mix, without supplementation (Invitrogen, cat. 11765054), 100 U/mL penicillin-streptomycin (Invitrogen, cat. 15140122), and 2.5% Matrigel (Corning Inc., cat. 354248) for the first three passages. The 857933-349-R-J2-PDC line was cultured in 6C/Colon 1B media, which includes advanced DMEM/F-12 (Thermo Fisher Scientific, cat. 12634028), 10 mM HEPES (Thermo Fisher Scientific, cat. 15630080), 1X GlutaMAX supplement (Thermo Fisher Scientific, cat. 35050061), 0.1 mg/mL primocin (InvivoGen, cat. ant-pm-2), 10% defined fetal bovine serum, heat inactivated (HyClone Laboratories Inc., cat. SH30070.03HI), 50% L-WRN conditioned media (ATCC, cat. CRL-3276), 1.25 mM N-Acetyl-L-cysteine (Sigma-Aldrich, cat. A9165), 10 mM nicotinamide (Sigma-Aldrich, cat. N0636), 1X B-27 supplement (Thermo Fisher Scientific, cat. 17504044), 1X N-2 supplement (Thermo Fisher Scientific, cat. 17502048), 10 microM Y-27632 dihydrochloride (Tocris Bioscience, cat. 1254), and 50 ng/mL human EGF recombinant protein (Thermo Fisher Scientific, cat. PHG0311). The 485176-168-R4-J1-PDC line was cultured in Panc media, which includes all 6C/Colon 1B media components plus 100 ng/mL human FGF-10 (Thermo Fisher Scientific, cat. 100-26), 500 nM SB-431542 (Selleckchem, cat. S1067), and gastrin (Tocris, cat. 3006).
[…]
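Note: spheroids exposed to compounds for seven days.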

O=c1[nH]cc(F)c(=O)[nH]1 + CN(C)c1ccc(Nc2c3ccc(NC(=O)CCN4CCCC4)cc3nc3cc(NC(=O)CCN4CCCC4)ccc23)cc1
IC50 (second compound 0.0316 µM): 2.2 µM
IC50 (second compound 0.1 µM): 1.57 µM
IC50 (second compound 0.316 µM): 1.65 µM
IC50 (second compound 1 µM): 1.26 µM
IC50 (second compound 3.16 µM): 1.36 µM
IC50 (second compound 10 µM): 1.75 µM
viability, T/C (second compound 0.0316 µM, first compound 0.0316 µM): 111%
viability, T/C (second compound 0.0316 µM, first compound 0.1 µM): 71.7%
viability, T/C (second compound 0.0316 µM, first compound 0.316 µM): 88.4%
viability, T/C (second compound 0.0316 µM, first compound 1 µM): 52.4%
viability, T/C (second compound 0.0316 µM, first compound 3.16 µM): 42.5%
viability, T/C (second compound 0.0316 µM, first compound 10 µM): 40.3%
viability, T/C (second compound 0.1 µM, first compound 0.0316 µM): 98.7%
viability, T/C (second compound 0.1 µM, first compound 0.1 µM): 100%
viability, T/C (second compound 0.1 µM, first compound 0.316 µM): 66.5%
viability, T/C (second compound 0.1 µM, first compound 1 µM): 59.2%
viability, T/C (second compound 0.1 µM, first compound 3.16 µM): 42.7%
viability, T/C (second compound 0.1 µM, first compound 10 µM): 33.3%
viability, T/C (second compound 0.316 µM, first compound 0.0316 µM): 94.8%
viability, T/C (second compound 0.316 µM, first compound 0.1 µM): 94.8%
viability, T/C (second compound 0.316 µM, first compound 0.316 µM): 72.6%
viability, T/C (second compound 0.316 µM, first compound 1 µM): 59.1%
viability, T/C (second compound 0.316 µM, first compound 3.16 µM): 40.4%
viability, T/C (second compound 0.316 µM, first compound 10 µM): 32.5%
viability, T/C (second compound 1 µM, first compound 0.0316 µM): 90.2%
viability, T/C (second compound 1 µM, first compound 0.1 µM): 88.8%
viability, T/C (second compound 1 µM, first compound 0.316 µM): 72.4%
viability, T/C (second compound 1 µM, first compound 1 µM): 57.5%
viability, T/C (second compound 1 µM, first compound 3.16 µM): 31.3%
viability, T/C (second compound 1 µM, first compound 10 µM): 32.1%
viability, T/C (second compound 3.16 µM, first compound 0.0316 µM): 83.9%
viability, T/C (second compound 3.16 µM, first compound 0.1 µM): 89.5%
viability, T/C (second compound 3.16 µM, first compound 0.316 µM): 65.9%
viability, T/C (second compound 3.16 µM, first compound 1 µM): 57.3%
viability, T/C (second compound 3.16 µM, first compound 3.16 µM): 37.6%
viability, T/C (second compound 3.16 µM, first compound 10 µM): 31.5%
viability, T/C (second compound 10 µM, first compound 0.0316 µM): 83.4%
viability, T/C (second compound 10 µM, first compound 0.1 µM): 85.2%
viability, T/C (second compound 10 µM, first compound 0.316 µM): 62.2%
viability, T/C (second compound 10 µM, first compound 1 µM): 69%
viability, T/C (second compound 10 µM, first compound 3.16 µM): 34.1%
viability, T/C (second compound 10 µM, first compound 10 µM): 31.7%
